In publication PMC9865589, “Synthesis and Evaluation of Novel S-alkyl Phthalimide- and S-benzyl-oxadiazole-quinoline Hybrids as Inhibitors of Monoamine Oxidase and Acetylcholinesterase” (Pharmaceuticals, 2022):
Several values for one entry are separate records, joined by “and”; a condition that tells them apart may be missing. Equal values may be shown once.

Legend:
Format in all cases: biochemical
AChE = AChE (Homo sapiens, UniProt P22303); experiment: biochemical; conditions: for IC50: average ± SEM, triplicate
AChE, sequence (P22303 32-614): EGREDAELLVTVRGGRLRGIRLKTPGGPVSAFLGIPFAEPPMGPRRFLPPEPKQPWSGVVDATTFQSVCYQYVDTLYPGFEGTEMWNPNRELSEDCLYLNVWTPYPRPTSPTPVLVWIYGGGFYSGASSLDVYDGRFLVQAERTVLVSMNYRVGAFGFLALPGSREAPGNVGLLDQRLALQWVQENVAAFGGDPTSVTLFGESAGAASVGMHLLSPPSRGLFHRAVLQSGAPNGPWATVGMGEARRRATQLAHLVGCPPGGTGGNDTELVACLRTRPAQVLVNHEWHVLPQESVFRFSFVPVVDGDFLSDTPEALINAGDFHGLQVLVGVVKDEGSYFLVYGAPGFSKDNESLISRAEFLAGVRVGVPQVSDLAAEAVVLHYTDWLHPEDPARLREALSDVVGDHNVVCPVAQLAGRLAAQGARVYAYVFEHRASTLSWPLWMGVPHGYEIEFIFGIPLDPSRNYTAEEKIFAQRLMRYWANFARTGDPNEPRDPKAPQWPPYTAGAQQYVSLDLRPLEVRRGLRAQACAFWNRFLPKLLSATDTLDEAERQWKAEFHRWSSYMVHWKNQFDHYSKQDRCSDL
Source text: (§1) Different test chemicals and substrate concentrations were utilized in the kinetic experiments. Lineweaver-Burk plots were employed to determine the kind of inhibition, and they were used to track how the inhibitor affected Km and Vmax by plotting the reciprocal reaction rate against the reciprocal substrate concentrations.
All substances were put through a little modified version of Ellman’s test to gauge the effectiveness of their ability to inhibit acetylcholinesterase (AChE). Released thiocholine reacts with chromogenic reagent 5,5-dithio-bis (2-nitrobenzoic) acid to produce a colorful product […]. At a concentration of 2.5 units/mL, the enzyme solutions were prepared. The assay volume was 100 μL, having 60 μL buffer and 10 μL test compound (0.1 mM, 10% DMSO), pursued by inserting enzyme 10 μL […]. The mixture was incubated for 10 min. 10 μL of the substrate and 10 μL of DTNB were added to the mixture.

MAO-A = biological target: T1, MAO-A (Homo sapiens, UniProt P21397); experiment: Monoamine oxidase A inhibition assay (Amplex red fluorescence); conditions: for IC50: average ± SEM, triplicate
T1 sequence (P21397 1-527): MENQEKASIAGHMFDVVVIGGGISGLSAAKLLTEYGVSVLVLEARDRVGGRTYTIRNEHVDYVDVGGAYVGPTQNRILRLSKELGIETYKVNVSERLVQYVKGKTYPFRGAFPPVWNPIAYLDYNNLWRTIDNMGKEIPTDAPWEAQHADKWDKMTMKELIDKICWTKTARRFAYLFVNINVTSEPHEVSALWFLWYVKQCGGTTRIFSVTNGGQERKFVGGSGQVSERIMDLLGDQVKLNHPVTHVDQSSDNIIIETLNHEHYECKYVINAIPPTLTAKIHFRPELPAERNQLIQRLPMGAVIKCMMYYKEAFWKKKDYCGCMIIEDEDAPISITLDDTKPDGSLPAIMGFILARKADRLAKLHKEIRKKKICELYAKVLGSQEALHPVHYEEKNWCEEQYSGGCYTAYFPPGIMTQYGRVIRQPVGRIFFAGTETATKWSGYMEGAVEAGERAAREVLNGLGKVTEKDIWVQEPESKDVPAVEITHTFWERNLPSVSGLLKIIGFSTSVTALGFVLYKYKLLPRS
Procedure: as §1
(§2) According to the previously reported protocol, the synthesized compounds’ action on the monoamine oxidase (MAO-A and MAO-B) enzymes was tested. The enzyme was produced just 15 to 20 min before, at a cold room temperature. […] White 96-well plates were utilized for the test. The assay volume was 100 μL, having 60 μL buffer (pH 7.4) and 10 μL test compound (0.1 mM, 10% DMSO), followed by adding enzyme 10 μL (26 μg of protein for MAO-A and 5.0 μg for MAO-B). For MAO-A and MAO-B, the mixture was incubated for 20 and 15 min, respectively. The mixture was then given 10 μL of the substrate and 10 μL of newly prepared Amplex red. […] The non-linear curve fitting tool PRISM 5.0 (GraphPad, San Diego, CA, USA) was employed to compute IC50 values.

MAO-B = biological target: T2, MAO-B (Homo sapiens, UniProt P27338); experiment: biochemical
T2 sequence (P27338 1-520): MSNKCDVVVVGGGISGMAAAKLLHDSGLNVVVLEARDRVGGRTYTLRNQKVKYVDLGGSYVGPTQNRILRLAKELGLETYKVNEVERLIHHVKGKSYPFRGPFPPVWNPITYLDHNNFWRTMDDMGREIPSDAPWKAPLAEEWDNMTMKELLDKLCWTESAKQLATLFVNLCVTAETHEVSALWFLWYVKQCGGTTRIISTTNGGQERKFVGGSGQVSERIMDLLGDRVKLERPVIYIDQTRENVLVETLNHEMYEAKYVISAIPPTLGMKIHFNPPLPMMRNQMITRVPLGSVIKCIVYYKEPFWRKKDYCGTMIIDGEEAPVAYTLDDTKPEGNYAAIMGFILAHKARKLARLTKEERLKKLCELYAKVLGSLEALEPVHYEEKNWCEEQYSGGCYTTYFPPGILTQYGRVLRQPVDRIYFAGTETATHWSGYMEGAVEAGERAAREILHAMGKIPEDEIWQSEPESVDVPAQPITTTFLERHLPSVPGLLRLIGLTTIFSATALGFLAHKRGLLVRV
Procedure: as §1, §2

[1] = Lineweaver-Burk plots, Vmax unaffected, Km increased

Compound	IC50 (AChE)	IC50 (MAO-A)	IC50 (MAO-B)	type of inhibition of MAO-B (MAO-B; [1])	type of inhibition of MAO-A (MAO-A; [1])	type of inhibition of AChE (AChE; [1])
O=C1c2ccccc2C(=O)N1CCCCCCSc1nnc(-c2cc(-c3ccccc3)nc3ccccc23)o1 [Compound 5f, 2-(6-(5-(2-Phenylquinolin-4-yl)-1,3,4-oxadiazol-2-ylthio)hexyl)isoindoline-1,3-dione]	3.32 ± 0.45 µM	4.88 ± 1.75 µM	0.84 ± 0.06 µM	pure competitive type of inhibition	–	–
FC(F)(F)c1cccc(CSc2nnc(-c3cc(-c4ccccc4)nc4ccccc34)o2)c1 [Compound 6b, 4-(5-(3-(Trifluoromethyl)benzylthio)-1,3,4-oxadiazol-2-yl)-2-phenylquinoline]	3.54 ± 1.05 µM	1.51 µM and 1.02 µM	2.71 ± 0.88 µM	–	–	–
O=C1c2ccccc2C(=O)N1CCSc1nnc(-c2cc(-c3ccccc3)nc3ccccc23)o1 [Compound 5b, 2-(2-(5-(2-Phenylquinolin-4-yl)-1,3,4-oxadiazol-2-ylthio)ethyl)isoindoline-1,3-dione]	2.55 ± 0.96 µM	1.81 ± 0.38 µM	2.61 ± 2.48 µM	–	–	–
O=C1c2ccccc2C(=O)N1CSc1nnc(-c2cc(-c3ccccc3)nc3ccccc23)o1 [Compound 5a, 2-((5-(2-Phenylquinolin-4-yl)-1,3,4-oxadiazol-2-ylthio)methyl)isoindoline-1,3-dione]	1.4 ± 0.45 µM	0.91 ± 0.15 µM	1.59 ± 1.66 µM	–	pure competitive type of inhibition	–
O=C1c2ccccc2C(=O)N1CCCCSc1nnc(-c2cc(-c3ccccc3)nc3ccccc23)o1 [Compound 5d, 2-(4-(5-(2-Phenylquinolin-4-yl)-1,3,4-oxadiazol-2-ylthio)butyl)isoindoline-1,3-dione]	2.38 ± 0.92 µM	3.18 ± 1.23 µM	3.76 ± 1.04 µM	–	–	–
FC(F)(F)c1ccc(CSc2nnc(-c3cc(-c4ccccc4)nc4ccccc34)o2)cc1 [Compound 6a, 4-(5-(4-(Trifluoromethyl)benzylthio)-1,3,4-oxadiazol-2-yl)-2-phenylquinoline]	3.23 ± 0.95 µM	1.02 µM and 1.51 µM	3.71 ± 2.88 µM	–	–	–
c1ccc(CSc2nnc(-c3cc(-c4ccccc4)nc4ccccc34)o2)cc1 [Compound 6d, 4-(5-(Benzylthio)-1,3,4-oxadiazol-2-yl)-2-phenylquinoline]	4.98 ± 1.85 µM	4.16 ± 1.71 µM	2.9 ± 1.85 µM	–	–	–
O=C1c2ccccc2C(=O)N1CCCCCSc1nnc(-c2cc(-c3ccccc3)nc3ccccc23)o1 [Compound 5e, 2-(5-(5-(2-Phenylquinolin-4-yl)-1,3,4-oxadiazol-2-ylthio)pentyl)isoindoline-1,3-dione]	1.29 ± 0.75 µM	4.14 ± 0.35 µM	3.84 ± 0.91 µM	–	–	–
FC(F)(F)c1ccccc1CSc1nnc(-c2cc(-c3ccccc3)nc3ccccc23)o1 [Compound 6c, 4-(5-(2-(Trifluoromethyl)benzylthio)-1,3,4-oxadiazol-2-yl)-2-phenylquinoline]	4.38 ± 1.45 µM	6.81 ± 2.65 µM	5.59 ± 3.22 µM	–	–	–
O=C1c2ccccc2C(=O)N1CCCSc1nnc(-c2cc(-c3ccccc3)nc3ccccc23)o1 [Compound 5c, 2-(3-(5-(2-Phenylquinolin-4-yl)-1,3,4-oxadiazol-2-ylthio)propyl)isoindoline-1,3-dione]	1.02 ± 0.65 µM	3.31 ± 0.8 µM	3.39 ± 0.42 µM	–	–	pure competitive type of inhibition
